Source: US9353090B2, “Heterocyclic carboxylic acids as activators of soluble guanylate cyclase” (Boehringer Ingelheim International GmbH, priority 2014, dated 2016)
Values after ≈ are worked out from the molar mass of the structure shown.

Tests used:
[1] = molecular target: human soluble guanylate cyclase alpha 1 and beta 1 subunits (sGC) (Homo sapiens (Human), UniProt Q02108+Q02153); assay: sGC cellular activator assay (cGMP, HTRF), in the presence and absence of 50% human serum; type: cell-based; details: CHO cells stably expressing human sGC alpha 1/beta 1, preincubated with 40 microM ODQ; cGMP by HTRF; Table 2 does not state whether with or without 50% human serum
How it was run: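 Heme-oxidized conditions: ODQ (40 microM, 1 h) pretreatment of CHO cells stably expressing human α1/β1 sGC, in buffer containing 0.1% BSA and IBMX.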

[2] = Human liver microsome (HLM) metabolic stability assay; type: in vitro ADME; details: human liver microsomes
How it was run: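 Compound at 1 uM incubated with human liver microsomes at 37° C. for 60 min after NADPH addition. Aliquots quenched in cold acetonitrile at 0, 5, 15, 30 and 60 min and analysed by LC/MS/MS. t1/2 from ln(% remaining) vs time slope; CLint, CLh and % Qh derived from it (n=1).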

physchem = details: kinetic from dmso stock
Experimental: Solubility is measured by the following method.
100 uL, 10 mM DMSO stock solution of each compound is prepared in a 96 well plate format. The experiment is done in single determination at 3 pH values (2.2, 4.5 and 6.8). For each pH and one reference, 40 uL of each compound is needed.
McIlvaine pH 2.2: To 2.076 g citric acid monohydrate and 0.043 g Na2HPO4×2H2O add 100 ml deionized water
McIlvaine pH 4.5: To 1.166 g citric acid monohydrate and 1.585 g Na2HPO4×2H2O add 100 ml deionized water
McIlvaine pH 6.8: To 0.476 g citric acid monohydrate and 2.753 g Na2HPO4×2H2O add 100 ml deionized water
With a suitable liquid handling device (Multipette® or a liquid handler) 390 uL of each buffer solution and 10 uL of compound is added to each well of a 96 deep well plate. The plates are covered firmly and shaken for 24 h on an over head shaker (at 54 RPM) at room temperature. The DMSO content in the final buffer is 2.5% v/v.
After 24 h the plates are centrifuged to remove droplets on the lid before opening (for ˜5 min at 2500 RPM).
The filtration is done under vacuum with Millipore 96 well filter plate. Filtrate is collected in a deep well plate and transferred to a suitable plate for UPLC analysis.
The reference plate is prepared by adding 10 uL of compound to 390 uL of 50:50 acetonitrile/water in a 96 deep well plate and transferred to a suitable plate for UPLC analysis. Wells are checked visually for precipitation, any presence noted under comments in reported results.
The samples are measured with UPLC-UV using the chromatographic method described below.
Waters Empower®2 software is used for generating Sample Sets (according to the plate layout), Sample Set Methods and Instrument Methods.
One Sample Set comprises the methods for three 96 well plates (one reference plate and two sample plates, and includes one Sample Set Method and one Instrument Method).
Data Processing and Analysis
The UV chromatograms collected at 254 nm are integrated and processed.
It is assumed that the compound is completely dissolved in the reference solution (50:50 acetonitrile/water)

[3] = pH 2.2, aqueous buffer, Solubility (pH 2.2)
[4] = pH 4.5, aqueous buffer, Solubility (pH 4.5)
[5] = pH 6.8, aqueous buffer, Solubility (pH 6.8)

Chain of human soluble guanylate cyclase alpha 1 and beta 1 subunits (sGC) (Q02108 whole entry partner): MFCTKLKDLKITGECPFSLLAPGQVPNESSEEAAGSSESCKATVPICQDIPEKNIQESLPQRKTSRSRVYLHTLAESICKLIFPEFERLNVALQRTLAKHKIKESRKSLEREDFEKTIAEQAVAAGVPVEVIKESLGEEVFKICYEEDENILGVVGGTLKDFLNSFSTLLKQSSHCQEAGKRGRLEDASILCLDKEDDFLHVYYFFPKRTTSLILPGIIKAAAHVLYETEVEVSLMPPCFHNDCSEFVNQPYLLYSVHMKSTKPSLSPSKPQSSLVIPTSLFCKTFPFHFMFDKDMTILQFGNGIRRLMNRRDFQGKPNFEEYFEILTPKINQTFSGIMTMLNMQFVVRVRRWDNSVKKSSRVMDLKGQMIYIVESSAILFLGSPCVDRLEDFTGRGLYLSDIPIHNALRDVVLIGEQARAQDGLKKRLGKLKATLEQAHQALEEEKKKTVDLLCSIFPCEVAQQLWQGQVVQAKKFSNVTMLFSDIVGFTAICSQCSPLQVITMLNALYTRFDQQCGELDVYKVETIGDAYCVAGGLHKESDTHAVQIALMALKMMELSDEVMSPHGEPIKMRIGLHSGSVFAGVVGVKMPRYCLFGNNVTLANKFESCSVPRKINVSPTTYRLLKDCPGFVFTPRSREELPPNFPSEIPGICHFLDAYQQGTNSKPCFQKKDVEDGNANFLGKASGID
Chain of human soluble guanylate cyclase alpha 1 and beta 1 subunits (sGC) (Q02153 whole entry): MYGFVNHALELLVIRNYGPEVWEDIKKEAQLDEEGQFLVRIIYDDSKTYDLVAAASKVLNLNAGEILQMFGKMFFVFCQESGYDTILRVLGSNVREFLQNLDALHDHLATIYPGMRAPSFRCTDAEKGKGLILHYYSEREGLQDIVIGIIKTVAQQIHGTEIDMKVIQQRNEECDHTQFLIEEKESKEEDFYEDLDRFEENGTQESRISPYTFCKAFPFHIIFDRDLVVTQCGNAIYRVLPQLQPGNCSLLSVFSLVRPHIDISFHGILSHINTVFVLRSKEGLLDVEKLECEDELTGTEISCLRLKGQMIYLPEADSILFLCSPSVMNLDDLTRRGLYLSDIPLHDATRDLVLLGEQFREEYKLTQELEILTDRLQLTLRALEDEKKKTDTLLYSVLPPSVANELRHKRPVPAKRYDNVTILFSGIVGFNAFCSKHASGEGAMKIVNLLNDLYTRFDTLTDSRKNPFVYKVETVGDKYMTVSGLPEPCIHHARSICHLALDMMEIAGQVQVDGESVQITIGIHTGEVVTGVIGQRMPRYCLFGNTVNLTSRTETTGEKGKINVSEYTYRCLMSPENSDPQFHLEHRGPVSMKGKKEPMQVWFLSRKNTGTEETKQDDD

## Cc1ccc(OCc2cc(C)c3c(c2)CCN(C2CCOCC2)C3)c(-c2csc(N3CC[C@@]4(C(=O)O)C[C@H]4C3)n2)c1 [Compound 123]
[1]
  EC50: 10 nM
[2]
  Metabolic stability (Qh %), % hepatic blood flow: <24%
physchem; [3]
  solubility at 24 h: 120 µg/mL (≈ 209 µM)
physchem; [4]
  solubility at 24 h: 32 µg/mL (≈ 55.8 µM)
physchem; [5]
  solubility at 24 h: 3.3 µg/mL (≈ 5.75 µM)

## Cc1ccc(OCc2cc(C)c3c(c2)CCN(C2COC2)C3)c(-c2csc(N3CC[C@@]4(C(=O)O)C[C@H]4C3)n2)c1 [Compound 124]
[1]
  EC50: 14 nM
[2]
  Metabolic stability (Qh %), % hepatic blood flow: 31%
physchem; [3]
  solubility at 24 h: 120 µg/mL (≈ 220 µM)
physchem; [4]
  solubility at 24 h: 3.7 µg/mL (≈ 6.78 µM)
physchem; [5]
  solubility at 24 h: 4.9 µg/mL (≈ 8.98 µM)

## Cc1ccc(OCc2cc(C)c3c(c2C)CCN(C2CCOCC2)C3)c(-c2csc(N3CC[C@@]4(C(=O)O)C[C@H]4C3)n2)c1 [Compound 125]
[1]
  EC50: 23 nM
[2]
  Metabolic stability (Qh %), % hepatic blood flow: <24%
physchem; [3]
  solubility at 24 h: 140 µg/mL (≈ 238 µM)
physchem; [4]
  solubility at 24 h: 20 µg/mL (≈ 34 µM)
physchem; [5]
  solubility at 24 h: 1.2 µg/mL (≈ 2.04 µM)

## Cc1ccc(OCc2cc(C)c3c(c2C)CCN(C2COC2)C3)c(-c2csc(N3CC[C@@]4(C(=O)O)C[C@H]4C3)n2)c1 [Compound 126]
[1]
  EC50: 44 nM
[2]
  Metabolic stability (Qh %), % hepatic blood flow: <24%
physchem; [3]
  solubility at 24 h: 130 µg/mL (≈ 232 µM)
physchem; [4]
  solubility at 24 h: 2.8 µg/mL (≈ 5 µM)
physchem; [5]
  solubility at 24 h: 1.8 µg/mL (≈ 3.22 µM)

## Cc1ccc(OCc2cc(C)c3c(c2C)CCN(CC2COCCO2)C3)c(-c2csc(N3CC[C@@]4(C(=O)O)C[C@H]4C3)n2)c1 (stereo partly drawn) [Compound 127]
[1]
  EC50: 3 nM
[2]
  Metabolic stability (Qh %), % hepatic blood flow: <24%
physchem; [3]
  solubility at 24 h: 130 µg/mL (≈ 215 µM)
physchem; [4]
  solubility at 24 h: 17 µg/mL (≈ 28.2 µM)
physchem; [5]
  solubility at 24 h: 0.77 µg/mL (≈ 1.28 µM)

## Cc1ccc(OCc2cc(C)c3c(c2C)CCN(C2CCCOC2)C3)c(-c2csc(N3CC[C@@]4(C(=O)O)C[C@H]4C3)n2)c1 (stereo partly drawn) [Compound 128]
[1]
  EC50: 9 nM
[2]
  Metabolic stability (Qh %), % hepatic blood flow: <24%
physchem; [3]
  solubility at 24 h: 120 µg/mL (≈ 204 µM)
physchem; [4]
  solubility at 24 h: 6.3 µg/mL (≈ 10.7 µM)
physchem; [5]
  solubility at 24 h: 0.3 µg/mL (≈ 0.51 µM)

## Cc1ccc(OCc2cc(C)c3c(c2C)CCN(C2CCOC2)C3)c(-c2csc(N3CC[C@@]4(C(=O)O)C[C@H]4C3)n2)c1 (stereo partly drawn) [Compound 129]
[1]
  EC50: 6 nM
[2]
  Metabolic stability (Qh %), % hepatic blood flow: <24%
physchem; [3]
  solubility at 24 h: 120 µg/mL (≈ 209 µM)
physchem; [4]
  solubility at 24 h: 7.7 µg/mL (≈ 13.4 µM)
physchem; [5]
  solubility at 24 h: 0.49 µg/mL (≈ 0.854 µM)

## Cc1ccc(OCc2ccc3c(c2C)CCN(C2CCOCC2)CC3)c(-c2csc(N3CC[C@@]4(C(=O)O)C[C@H]4C3)n2)c1 [Compound 130]
[1]
  EC50: 6 nM
[2]
  Metabolic stability (Qh %), % hepatic blood flow: <24%
physchem; [3]
  solubility at 24 h: 120 µg/mL (≈ 204 µM)
physchem; [4]
  solubility at 24 h: 20 µg/mL (≈ 34 µM)
physchem; [5]
  solubility at 24 h: 2.9 µg/mL (≈ 4.93 µM)

## Cc1ccc(OCc2ccc3c(c2C)CCN(CC2COCCO2)CC3)c(-c2csc(N3CC[C@@]4(C(=O)O)C[C@H]4C3)n2)c1 (stereo partly drawn) [Compound 132]
[1]
  EC50: 22 nM
[2]
  Metabolic stability (Qh %), % hepatic blood flow: 46%
physchem; [3]
  solubility at 24 h: 110 µg/mL (≈ 182 µM)
physchem; [4]
  solubility at 24 h: 23 µg/mL (≈ 38.1 µM)
physchem; [5]
  solubility at 24 h: 3.1 µg/mL (≈ 5.13 µM)

## Cc1ccc(OCc2ccc3c(c2C)CCN(C2CCOC2)CC3)c(-c2csc(N3CC[C@@]4(C(=O)O)C[C@H]4C3)n2)c1 (stereo partly drawn) [Compound 133]
[1]
  EC50: 18 nM
[2]
  Metabolic stability (Qh %), % hepatic blood flow: 43%
physchem; [3]
  solubility at 24 h: 90 µg/mL (≈ 157 µM)
physchem; [4]
  solubility at 24 h: 12 µg/mL (≈ 20.9 µM)
physchem; [5]
  solubility at 24 h: 1.6 µg/mL (≈ 2.79 µM)

## Cc1ccc(OCc2ccc3c(c2C)CCN(C2CCCOC2)CC3)c(-c2csc(N3CC[C@@]4(C(=O)O)C[C@H]4C3)n2)c1 (stereo partly drawn) [Compound 134]
[1]
  EC50: 11 nM
[2]
  Metabolic stability (Qh %), % hepatic blood flow: 53%
physchem; [3]
  solubility at 24 h: 110 µg/mL (≈ 187 µM)
physchem; [4]
  solubility at 24 h: 8.5 µg/mL (≈ 14.5 µM)
physchem; [5]
  solubility at 24 h: 0.95 µg/mL (≈ 1.62 µM)

## Cc1cccc(-c2csc(N3C[C@@H]4C[C@]4(C(=O)O)C3)n2)c1OCc1ccc2c(c1)CCN(C1CCOCC1)C2 [Compound 135]
[1]
  EC50: 39 nM
[2]
  Metabolic stability (Qh %), % hepatic blood flow: <24%
physchem; [3]
  solubility at 24 h: 100 µg/mL (≈ 183 µM)
physchem; [4]
  solubility at 24 h: 70 µg/mL (≈ 128 µM)
physchem; [5]
  solubility at 24 h: 56 µg/mL (≈ 103 µM)

## Cc1cccc(-c2csc(N3C[C@@H]4C[C@]4(C(=O)O)C3)n2)c1OCc1ccc2c(c1C)CCN(C1CCOCC1)C2 [Compound 136]
[1]
  EC50: 18 nM
[2]
  Metabolic stability (Qh %), % hepatic blood flow: <24%
physchem; [3]
  solubility at 24 h: 110 µg/mL (≈ 197 µM)
physchem; [4]
  solubility at 24 h: 76 µg/mL (≈ 136 µM)
physchem; [5]
  solubility at 24 h: 62 µg/mL (≈ 111 µM)

## Cc1cccc(-c2csc(N3C[C@@H]4C[C@]4(C(=O)O)C3)n2)c1OCc1ccc2c(c1C)CCN(C1CCC1)C2 [Compound 137]
[1]
  EC50: 67 nM
[2]
  Metabolic stability (Qh %), % hepatic blood flow: 32%
physchem; [3]
  solubility at 24 h: 100 µg/mL (≈ 189 µM)
physchem; [4]
  solubility at 24 h: 71 µg/mL (≈ 134 µM)
physchem; [5]
  solubility at 24 h: 51 µg/mL (≈ 96.3 µM)

## Cc1cccc(-c2csc(N3C[C@@H]4C[C@]4(C(=O)O)C3)n2)c1OCc1ccc2c(c1C)CCN(C1COC1)C2 [Compound 138]
[1]
  EC50: 18 nM
[2]
  Metabolic stability (Qh %), % hepatic blood flow: <24%
physchem; [3]
  solubility at 24 h: 100 µg/mL (≈ 188 µM)
physchem; [4]
  solubility at 24 h: 59 µg/mL (≈ 111 µM)
physchem; [5]
  solubility at 24 h: 65 µg/mL (≈ 122 µM)

## Cc1cc(COc2c(C)cccc2-c2csc(N3C[C@@H]4C[C@]4(C(=O)O)C3)n2)cc2c1CN(C1COC1)CC2 [Compound 139]
[1]
  EC50: 7 nM
[2]
  Metabolic stability (Qh %), % hepatic blood flow: <24%
physchem; [3]
  solubility at 24 h: 96 µg/mL (≈ 181 µM)
physchem; [4]
  solubility at 24 h: 58 µg/mL (≈ 109 µM)
physchem; [5]
  solubility at 24 h: 59 µg/mL (≈ 111 µM)

## Cc1cc(COc2c(C)cccc2-c2csc(N3C[C@@H]4C[C@]4(C(=O)O)C3)n2)cc2c1CN(C1CCOCC1)CC2 [Compound 140]
[1]
  EC50: 5 nM
[2]
  Metabolic stability (Qh %), % hepatic blood flow: <24%
physchem; [3]
  solubility at 24 h: 100 µg/mL (≈ 179 µM)
physchem; [4]
  solubility at 24 h: 73 µg/mL (≈ 130 µM)
physchem; [5]
  solubility at 24 h: 60 µg/mL (≈ 107 µM)

## Cc1cccc(-c2csc(N3C[C@@H]4C[C@]4(C(=O)O)C3)n2)c1OCc1cc(C#N)c2c(c1)CCN(C1COC1)C2 [Compound 141]
[1]
  EC50: 34 nM
[2]
  Metabolic stability (Qh %), % hepatic blood flow: <24%
physchem; [3]
  solubility at 24 h: 110 µg/mL (≈ 203 µM)
physchem; [4]
  solubility at 24 h: 38 µg/mL (≈ 70 µM)
physchem; [5]
  solubility at 24 h: 81 µg/mL (≈ 149 µM)

## Cc1cccc(-c2csc(N3C[C@@H]4C[C@]4(C(=O)O)C3)n2)c1OCc1cc(C#N)c2c(c1)CCN(C1CCOCC1)C2 [Compound 142]
[1]
  EC50: 23 nM
[2]
  Metabolic stability (Qh %), % hepatic blood flow: <24%
physchem; [3]
  solubility at 24 h: 110 µg/mL (≈ 193 µM)
physchem; [4]
  solubility at 24 h: 69 µg/mL (≈ 121 µM)
physchem; [5]
  solubility at 24 h: 69 µg/mL (≈ 121 µM)

## Cc1cccc(-c2csc(N3C[C@@H]4C[C@]4(C(=O)O)C3)n2)c1OCc1ccc2c(c1C)CCN(C1COC1)CC2 [Compound 143]
[1]
  EC50: 9 nM
[2]
  Metabolic stability (Qh %), % hepatic blood flow: <24%
physchem; [3]
  solubility at 24 h: 110 µg/mL (≈ 202 µM)
physchem; [4]
  solubility at 24 h: 70 µg/mL (≈ 128 µM)
physchem; [5]
  solubility at 24 h: 56 µg/mL (≈ 103 µM)

## Cc1cccc(-c2csc(N3C[C@@H]4C[C@]4(C(=O)O)C3)n2)c1OCc1ccc2c(c1C)CCN(C1CCOCC1)CC2 [Compound 144]
[1]
  EC50: 10 nM
[2]
  Metabolic stability (Qh %), % hepatic blood flow: <24%
physchem; [3]
  solubility at 24 h: 110 µg/mL (≈ 192 µM)
physchem; [4]
  solubility at 24 h: 74 µg/mL (≈ 129 µM)
physchem; [5]
  solubility at 24 h: 62 µg/mL (≈ 108 µM)

## Cc1ccc(OCc2ccc3c(c2)CCN(C2CCOCC2)C3)c(-c2csc(N3C[C@@H]4C[C@]4(C(=O)O)C3)n2)c1 [Compound 145]
[1]
  EC50: 162 nM
[2]
  Metabolic stability (Qh %), % hepatic blood flow: <24%
physchem; [3]
  solubility at 24 h: 110 µg/mL (≈ 202 µM)
physchem; [4]
  solubility at 24 h: 62 µg/mL (≈ 114 µM)
physchem; [5]
  solubility at 24 h: 28 µg/mL (≈ 51.3 µM)

## Cc1ccc(OCc2ccc3c(c2C)CCN(C2CCOCC2)C3)c(-c2csc(N3C[C@@H]4C[C@]4(C(=O)O)C3)n2)c1 [Compound 146]
[1]
  EC50: 57 nM
[2]
  Metabolic stability (Qh %), % hepatic blood flow: 26%
physchem; [3]
  solubility at 24 h: 110 µg/mL (≈ 197 µM)
physchem; [4]
  solubility at 24 h: 59 µg/mL (≈ 105 µM)
physchem; [5]
  solubility at 24 h: 9.9 µg/mL (≈ 17.7 µM)

## Cc1ccc(OCc2ccc3c(c2)CCN(C2CCOCC2)CC3)c(-c2csc(N3C[C@@H]4C[C@]4(C(=O)O)C3)n2)c1 [Compound 147]
[1]
  EC50: 49 nM
[2]
  Metabolic stability (Qh %), % hepatic blood flow: <24%
physchem; [3]
  solubility at 24 h: > 140 µg/mL
physchem; [4]
  solubility at 24 h: < 0.1 µg/mL
physchem; [5]
  solubility at 24 h: < 0.1 µg/mL
